{"source": "patent US12378224B2", "about": "(Dong-A Socio Holdings Co., Ltd., priority 2016, dated 2025)"}
{"target": "human MER (528-end) (Homo sapiens (Human), UniProt Q12866)", "sequence (Q12866 528-999 limits assumed)": "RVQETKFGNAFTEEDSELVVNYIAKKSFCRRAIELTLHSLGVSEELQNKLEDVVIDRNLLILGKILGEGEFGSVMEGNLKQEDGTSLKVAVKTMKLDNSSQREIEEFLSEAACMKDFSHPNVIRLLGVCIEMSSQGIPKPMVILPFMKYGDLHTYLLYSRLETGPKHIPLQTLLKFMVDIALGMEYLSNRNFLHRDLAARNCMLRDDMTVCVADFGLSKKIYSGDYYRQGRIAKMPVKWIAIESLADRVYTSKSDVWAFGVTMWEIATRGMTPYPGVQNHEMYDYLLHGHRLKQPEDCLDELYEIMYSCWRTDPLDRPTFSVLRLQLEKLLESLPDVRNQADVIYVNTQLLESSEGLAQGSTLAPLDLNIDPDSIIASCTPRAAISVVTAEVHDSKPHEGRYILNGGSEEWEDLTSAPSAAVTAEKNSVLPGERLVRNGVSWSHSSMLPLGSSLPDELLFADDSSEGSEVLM", "experiment": "HTRF Kinase Activity Biochemical Assay (KinEASE-TK)", "settings": "10 uM ATP", "summary_of_the_method": "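Activity read-out is the HTRF ratio (665 nm over 620 nm emission, ×10,000; excitation 340 nm) after 1 h detection with 0.375 nM Eu3+-cryptate anti-TK antibody plus 0.062 uM SA-XL665. Preceding kinase step: human MER (528-end), biotinylated TK substrate, 1 h, room temperature.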", "units": {"IC50": "µM"}}
{"compound": "Cn1cc(-c2cnc(N)c(C(=O)N[C@@H]3CCN(C(=O)c4ccc(C#CCCO)cc4)C3)c2)cn1", "note": "[Example 553, (R)-2-amino-N-(1-(4-(4-hydroxybut-1-yn-1-yl)benzoyl)pyrrolidin-3-yl)-5-(1-methyl-1H-pyrazol-4-yl)nicotinamide]", "IC50": "> 1"}
{"compound": "Cn1cc(-c2cnc(N)c(C(=O)N[C@@H]3CCN(C(=O)c4ccc(C#CCCCO)cc4)C3)c2)cn1", "note": "[Example 554, (R)-2-amino-N-(1-(4-(5-hydroxypent-1-yn-1-yl)benzoyl)pyrrolidin-3-yl)-5-(1-methyl-1H -pyrazol-4-yl)nicotinamide]", "IC50": "0.1 to 1"}
{"compound": "CN1CCN(c2ccc(-c3cnc(N)c(C(=O)N[C@@H]4CCN(C(=O)c5ccc(-c6ccccc6)cc5)C4)c3)cc2)CC1", "note": "[Example 556, (R)—N-(1-([1,1′-biphenyl]-4-carbonyl)pyrrolidin-3-yl)-2-amino-5-(4-(4-methylpiperazin-1-yl)phenyl)nicotinamide]", "IC50": "0.01 to 0.1"}
{"compound": "Nc1ncc(-c2cccnc2)cc1C(=O)N[C@@H]1CCN(C(=O)c2ccc(-c3ccccc3)cc2)C1", "note": "[Example 558, (R)—N-(1-([1,1′-biphenyl]-4-carbonyl)pyrrolidin-3-yl)-6-amino-[3,3′-bipyridine]-5-carboxamide]", "IC50": "0.01 to 0.1"}
{"compound": "Nc1ncc(-c2ccc(F)nc2)cc1C(=O)N[C@@H]1CCN(C(=O)c2ccc(-c3ccccc3)cc2)C1", "note": "[Example 560, (R)—N-(1-([1,1′-biphenyl]-4-carbonyl)pyrrolidin-3-yl)-6-amino-6′-fluoro-[3,3′-bipyridine]-5-carboxamide]", "IC50": "0.1 to 1"}
{"compound": "Nc1ncc(-c2cnn(C3CCNCC3)c2)cc1C(=O)N[C@@H]1CCN(C(=O)c2ccc(-c3ccccc3)cc2)C1", "note": "[Example 562, (R)—N-(1-([1,1′-biphenyl]-4-carbonyl)pyrrolidin-3-yl)-2-amino-5-(1-(piperidin-4-yl)-1H-pyrazol-4-yl)nicotinamide]", "IC50": "0.01 to 0.1"}
{"compound": "CN1CCC(n2cc(-c3cnc(N)c(C(=O)N[C@@H]4CCN(C(=O)c5ccc(-c6ccccc6)cc5)C4)c3)cn2)CC1", "note": "[Example 563, (R)—N-(1-([1,1′-biphenyl]-4-carbonyl)pyrrolidin-3-yl)-2-amino-5-(1-(1-methylpiperidin-4-yl)-1H-pyrazol-4-yl)nicotinamide]", "IC50": "0.01 to 0.1"}
{"compound": "Nc1ncc(-c2ccc(CO)cc2)cc1C(=O)N[C@@H]1CCN(C(=O)c2ccc(-c3ccccc3)cc2)C1", "note": "[Example 568, (R)—N-(1-([1,1′-biphenyl]-4-carbonyl)pyrrolidin-3-yl)-2-amino-5-(4-(hydroxymethyl)phenyl)nicotinamide]", "IC50": "0.1 to 1"}
{"compound": "COCCn1cc(-c2cnc(N)c(C(=O)N[C@@H]3CCN(C(=O)c4ccc(-c5ccccc5Cl)cc4)C3)c2)cn1", "note": "[Example 573, (R)-2-amino-N-(1-(2′-chloro-[1,1′-biphenyl]-4-carbonyl)pyrrolidin-3-yl)-5-(1-(2-methoxyethyl)-1H-pyrazol-4-yl)nicotinamide]", "IC50": "0.01 to 0.1"}
{"compound": "Nc1ncc(-c2ccc(S(N)(=O)=O)cc2)cc1C(=O)N[C@@H]1CCN(C(=O)c2ccc(-c3ccccc3Cl)cc2)C1", "note": "[Example 575, (R)-2-amino-N-(1-(2′-chloro-[1,1′-biphenyl]-4-carbonyl)pyrrolidin-3-yl)-5-(4-sulfamoylphenyl)nicotinamide]", "IC50": "0.01 to 0.1"}
{"compound": "CS(=O)(=O)Nc1ccc(-c2cnc(N)c(C(=O)N[C@@H]3CCN(C(=O)c4ccc(-c5ccccc5Cl)cc4)C3)c2)cc1", "note": "[Example 576, (R)-2-amino-N-(1-(2′-chloro-[1,1′-biphenyl]-4-carbonyl)pyrrolidin-3-yl)-5-(4-(methylsulfonamido)phenyl)nicotinamide]", "IC50": "0.1 to 1"}
{"compound": "CC(C)(C)n1cc(-c2cnc(N)c(C(=O)N[C@@H]3CCN(C(=O)c4ccc(-c5ccccc5Cl)cc4)C3)c2)cn1", "note": "[Example 577, (R)-2-amino-5-(1-(tert-butyl)-1H-pyrazol-4-yl)-N-(1-(2′-chloro-[1,1′-biphenyl]-4-carbonyl)pyrrolidin-3-yl)nicotinamide]", "IC50": "0.01 to 0.1"}
{"compound": "Nc1ncc(Br)cc1C(=O)N[C@@H]1CCN(C(=O)c2ccc(-c3ccc(F)cc3Cl)cc2)C1", "note": "[Example 580, (R)-2-amino-5-bromo-N-(1-(2′-chloro-4′-fluoro-[1,1′-biphenyl]-4-carbonyl)pyrrolidin-3-yl)nicotinamide]", "IC50": "0.1 to 1"}
{"compound": "CC(=O)Nc1ccc(-c2cnc(N)c(C(=O)N[C@@H]3CCN(C(=O)c4ccc(-c5ccc(F)cc5Cl)cc4)C3)c2)cn1", "note": "[Example 582, (R)-6′-acetamido-6-amino-N-(1-(2′-chloro-4′-fluoro-[1,1′-biphenyl]-4-carbonyl)pyrrolidin-3-yl)-[3,3′-bipyridine]-5-carboxamide]", "IC50": "0.1 to 1"}
{"compound": "Nc1ncc(-c2cncc(C(=O)O)c2)cc1C(=O)N[C@@H]1CCN(C(=O)c2ccc(-c3ccc(F)cc3Cl)cc2)C1", "note": "[Example 587, (R)-6′-amino-5′-((1-(2′-chloro-4′-fluoro-[1,1′-biphenyl]-4-carbonyl)pyrrolidin-3-yl)carbamoyl)-[3,3′-bipyridine]-5-carboxylic acid]", "IC50": "0.1 to 1"}
{"compound": "Nc1ncc(-c2ccc(C(=O)N3CCN(CCO)CC3)cc2)cc1C(=O)N[C@@H]1CCN(C(=O)c2ccc(-c3ccccc3Cl)cc2)C1", "note": "[Example 589, (R)-2-amino-N-(1-(2′-chloro-[1,1′-biphenyl]-4-carbonyl)pyrrolidin-3-yl)-5-(4-(4-(2-hydroxyethyl)piperazine-1-carbonyl)phenyl)nicotinamide]", "IC50": "0.01 to 0.1"}
{"compound": "CN(C(=O)c1cc(-c2cnn(C)c2)cnc1N)[C@@H]1CCN(Cc2ccccc2)C1", "note": "[Example 623, (R)-2-amino-N-(1-benzylpyrrolidin-3-yl)-N-methyl-5-(1-methyl-1H-pyrazol-4-yl)nicotinamide]", "IC50": "> 1"}
{"compound": "CN(C(=O)N1CC[C@@H](NC(=O)c2cc(-c3cnn(C)c3)cnc2N)C1)c1ccccc1", "note": "[Example 625, (R)-2-amino-N-(1-(methyl(phenyl)carbamoyl)pyrrolidin-3-yl)-5-(1-methyl-1H-pyrazol-4-yl)nicotinamide]", "IC50": "> 1"}
{"compound": "Nc1ncc(-c2cnn(C3CCNCC3)c2)cc1C(=O)N[C@@H]1CCN(C(CO)c2ccccc2)C1", "note": "(stereo partly drawn) [Example 629, 2-amino-N-((3R)-1-(2-hydroxy-1-phenylethyl)pyrrolidin-3-yl)-5-(1-(piperidin-4-yl)-1H-pyrazol-4-yl)nicotinamide]", "IC50": "> 1"}
{"compound": "Nc1ncc(-c2cnn(C3CCNCC3)c2)cc1C(=O)N[C@@H]1CCN(Cc2ccnc(Cl)c2)C1", "note": "[Example 631, (R)-2-amino-N-(1-((2-chloropyridin-4-yl)methyl)pyrrolidin-3-yl)-5-(1-(piperidin-4-yl)-1H-pyrazol-4-yl)nicotinamide]", "IC50": "> 1"}
{"compound": "CC(C)Cn1cc(-c2cnc(N)c(C(=O)N[C@@H]3CCN(Cc4ccccc4Cl)C3)c2)cn1", "note": "[Example 632, (R)-2-amino-N-(1-(2-chlorobenzyl)pyrrolidin-3-yl)-5-(1-isobutyl-1H-pyrazol-4-yl)nicotinamide]", "IC50": "0.1 to 1"}
{"compound": "CN1CCN(Cc2ccc(C(=O)N3CC[C@@H](NC(=O)c4cc(-c5cnn(C)c5)cnc4N)C3)cc2)CC1", "note": "[Example 640, (R)-2-amino-5-(1-methyl-1H-pyrazol-4-yl)-N-(1-(4-((4-methylpiperazin-1-yl)methyl)benzoyl)pyrrolidin-3-yl)nicotinamide]", "IC50": "> 1"}
{"compound": "Cn1cc(-c2cnc(N)c(C(=O)N[C@@H]3CCN(C(=O)c4ccc(CN5CCN(CCO)CC5)cc4)C3)c2)cn1", "note": "[Example 641, (R)-2-amino-N-(1-(4-((4-(2-hydroxyethyl)piperazin-1-yl)methyl)benzoyl)pyrrolidin-3-yl)-5-(1-methyl-1H-pyrazol-4-yl)nicotinamide]", "IC50": "> 1"}
{"compound": "Cn1cc(-c2cnc(N)c(C(=O)N[C@@H]3CCN(C(=O)c4ccc(-c5ccc(N)cc5)cc4)C3)c2)cn1", "note": "[Example 662, (R)-2-amino-N-(1-(4′-amino-[1,1′-biphenyl]-4-carbonyl)pyrrolidin-3-yl)-5-(1-methyl-1H-pyrazol-4-yl)nicotinamide]", "IC50": "> 1"}
{"compound": "Cn1cc(-c2cnc(N)c(C(=O)N[C@@H]3CCN(C(=O)c4ccc(-c5cc(F)cc(Cl)c5)cc4)C3)c2)cn1", "note": "[Example 663, (R)-2-amino-N-(1-(3′-chloro-5′-fluoro-[1,1′-biphenyl]-4-carbonyl)pyrrolidin-3-yl)-5-(1-methyl-1H-pyrazol-4-yl)nicotinamide]", "IC50": "0.01 to 0.1"}
{"compound": "Cn1cc(-c2cnc(N)c(C(=O)N[C@@H]3CCN(C(=O)c4ccc(-c5cc(Cl)c(F)c(Cl)c5)cc4)C3)c2)cn1", "note": "[Example 664, (R)-2-amino-N-(1-(3′,5′-dichloro-4′-fluoro-[1,1′-biphenyl]-4-carbonyl)pyrrolidin-3-yl)-5-(1-methyl-1H-pyrazol-4-yl)nicotinamide]", "IC50": "0.1 to 1"}
{"compound": "Cn1cc(-c2cnc(N)c(C(=O)N[C@@H]3CCN(C(=O)c4ccc(-c5cc(F)ccc5Cl)cc4)C3)c2)cn1", "note": "[Example 667, (R)-2-amino-N-(1-(2′-chloro-5′-fluoro-[1,1′-biphenyl]-4-carbonyl)pyrrolidin-3-yl)-5-(1-methyl-1H-pyrazol-4-yl)nicotinamide]", "IC50": "0.01 to 0.1"}
{"compound": "Cn1cc(-c2cnc(N)c(C(=O)N[C@@H]3CCN(C(=O)c4cccc5c(Br)cccc45)C3)c2)cn1", "note": "[Example 669, (R)-2-amino-N-(1-(5-bromo-1-naphthoyl)pyrrolidin-3-yl)-5-(1-methyl-1H-pyrazol-4-yl)nicotinamide]", "IC50": "> 1"}
{"compound": "CCc1cc(CO[C@H]2CN(C(=O)c3ccc(-c4ccccc4)cc3)C[C@@H]2NC(=O)c2cc(-c3cnn(C)c3)cnc2N)ccc1C", "note": "[Example 674, N-((3S,4S)-1-([1,1′-biphenyl]-4-carbonyl)-4-((3-ethyl-4-methylbenzyl)oxy)pyrrolidin-3-yl)-2-amino-5-(1-methyl-1H-pyrazol-4-yl)nicotinamide]", "IC50": "> 1"}
{"compound": "CCc1cc(CO[C@H]2CN(C(=O)c3cccc(-c4ccccc4)c3)C[C@@H]2NC(=O)c2cc(-c3cnn(C)c3)cnc2N)ccc1C", "note": "[Example 675, N-((3S,4S)-1-([1,1′-biphenyl]-3-carbonyl)-4-((3-ethyl-4-methylbenzyl)oxy)pyrrolidin-3-yl)-2-amino-5-(1-methyl-1H-pyrazol-4-yl)nicotinamide]", "IC50": "> 1"}
